# Structures can show the parent of a compound that is named as a salt. Where two headings read alike, the source gives them in different places.
# Columns and labels:
# BCG [1] = assay: microbe, parasite or virus in culture; format: cell-based, Mycobacterium bovis BCG; details: for MIC: Mycobacterium tuberculosis variant bovis BCG, BCG, read-out: Liquid MIC
# BCG [2] = assay: microbe, parasite or virus in culture; format: cell-based, Mycobacterium bovis BCG; details: for MIC: Mycobacterium tuberculosis variant bovis BCG
# M. tuberculosis H37Rv = assay: Alamar Blue (resazurin) MIC assay; format: cell-based, Mycobacterium tuberculosis; details: liquid growth media
# Experimental: To investigate the effects of repurposed compounds on growth of M. tuberculosis H37Rv using an Alamar Blue based MIC assay using the resazurin reagent. This assay was performed in 7H9 medium containing Middlebrook broth and 0.5% glycerol and supplemented with oleic acid, albumin, dextrose, and catalase. Clear- 96-well plates were inoculated with 100 μL of drug diluted with 90 μl of 7H9 medium and 10 μL DMSO. Serial 3-fold dilutions of each drug in 100 μL of 7H9 medium were prepared at various ranges. Growth controls containing no antibiotic and sterility controls without inoculation were also included. 200 μL of sterile deionized water was added to the outer perimeter wells to prevent evaporation during plate incubation. Plates were incubated plate at 37°C for 3–4 days. After incubation, the plates were removed and 10 μL of resazurin (0.02% w/v) was added to each well that contained bacteria. Assay plates were reincubated at 37°C for 24–48 hours and visually assessed for colour development. OD 570 nm readings were taken to provide further quantitation provide an interpretation of the dose response of the bacterium to repurposed compounds.
# HepG2 cells = assay: HepG2 cytotoxicity assay (CellTitre-Glo); format: cell-based
# Experimental: Actively growing HepG2 cells were removed from a T-175 tissue culture flask with 5 mL of Eagle’s MEM containing 10% FBS/1%NEAA/1% Penicillin and Streptomycin) and mixed with gentle pipetting. […] The cell suspension was added to 250 mL of the same medium at a final density of […]. […] Plates were allowed to incubate at 37°C at a relative humidity of 80% and 5% CO2 for 48 hours. After incubation, the plates were allowed to equilibrate at room temperature for 30 mins before 25 μL of CellTitre-Glo (Promega) reagent was added to each well using a multichannel pipette. Plates were left at room temperature for 30 mins before relative luminescence was read using a BMG Labtech POLARstar Omega plate reader.
# M. smegmatis [3] = assay: microbe, parasite or virus in culture; format: cell-based, Mycobacterium smegmatis; details: liquid medium
# M. smegmatis [4] = assay: MIC determination on solid agar; format: cell-based, Mycobacterium smegmatis; details: M. smegmatis, 7H10 solid agar, absence of colonies, read-out: Solid MIC
# Experimental: Drugs were diluted from a 10mM stock, mixed individually in 2 mLs of molten 7H10 agar and dispensed in square partitioned petri plates. Plates were incubated at 37°C and solid MIC was determined based on absence of colonies.
# M. smegmatis [5] = format: cell-based, Mycobacterium smegmatis; details: 20 μM compound, 48 hr read, GFP fluorescence
# BCG [6] = format: cell-based, Mycobacterium bovis BCG
# [7] = read-out: Solid MIC, BCG, 7H10 solid agar, absence of colonies
# [8] = read-out: Solid MIC, BCG, solid agar, values given in mM
structure (smiles),measurement,setting,value
CN(C)CC/C=C1/c2ccccc2COc2ccc(CC(=O)O)cc21 [Olopatadine],Liquid MIC,BCG [1],202.30 µM
same,MIC,BCG [1],202 µM
same,MIC,BCG [2]; [7],≥ 0.5 mM
same,MIC,BCG [2]; [8],> 0.5 mM
N=C(N)c1ccc(OCCCCCOc2ccc(C(=N)N)cc2)cc1 [Pentamidine],MIC,BCG [1],3.23 µM
same,MIC,BCG [2]; [7],0.05 mM
same,MIC,BCG [2]; [8],~0.05 mM
same,MIC,M. tuberculosis H37Rv; Mycobacterium tuberculosis,10.5 µM
same,IC50,"HepG2 cells; Homo sapiens, HepG2, 48 hours",3.5 µM
"CC(C)(N)Cc1ccccc1 [Phenteramine, Phentermine]",MIC,BCG [1],375 µM
O=C(c1ccc(OCCN2CCCCC2)cc1)c1c(-c2ccc(O)cc2)sc2cc(O)ccc12 [Raloxifene],MIC,M. smegmatis [3],25.7 µM
same,MIC,M. smegmatis [4],312.5 µM
same,MIC,M. tuberculosis H37Rv,22.10 µM
same,IC50,HepG2 cells; 48 hours,20 µM
CN(CCOc1ccc(CC2SC(=O)NC2=O)cc1)c1ccccn1 (stereo not shown) [Rosiglitazone],MIC,BCG [1],43.1 µM
same,MIC,BCG [2]; [7],≥ 1.5 mM
same,MIC,BCG [2]; [8],~1.5 mM
CN[C@H]1CC[C@@H](c2ccc(Cl)c(Cl)c2)c2ccccc21 [Sertraline],MIC,M. smegmatis [3],526.7 µM
same,MIC,M. smegmatis [4]; Mycolicibacterium smegmatis,90 µM
CCCCCCCCNC(C)C(O)c1ccc(SC(C)C)cc1 (stereo not shown) [Sulocitidil],MIC,M. smegmatis [3],87.22 µM
same,MIC,M. smegmatis [4],625 µM
CC/C(=C(\c1ccccc1)c1ccc(OCCN(C)C)cc1)c1ccccc1 [Tamoxifen citrate],MIC,M. smegmatis [3],26.48 µM
same,MIC,M. tuberculosis H37Rv; Mycobacterium tuberculosis,≥ 100 µM
"CCCCCCCCCCCCCCCC[N+](C)(C)CCN(Cc1ccc(OC)cc1)c1ncccn1 [Thonzonium, Thonzonium bromide]",MIC,BCG [1],0.16 µM
same,Solid MIC relative to liquid MIC,BCG [2],5 fold
same,MIC,BCG [2]; [7],~0.005 mM
CN(C)CCOc1ccc(/C(=C(/CCCl)c2ccccc2)c2ccccc2)cc1 [Toremifene],MIC,M. smegmatis [3],23.76 µM
same,MIC,M. smegmatis [4]; Mycolicibacterium smegmatis,62.5 µM
CN(C)CCN(Cc1ccccc1)c1ccccn1 [Tripelennamine],MIC,BCG [1],41.9 µM
same,Solid MIC relative to liquid MIC,BCG [2],2 fold
same,MIC,BCG [2]; [7],0.1 mM
same,MIC,BCG [2]; [8],0.1 mM
same,MIC,M. tuberculosis H37Rv; Mycobacterium tuberculosis,49.3 µM
same,IC50,"HepG2 cells; Homo sapiens, HepG2, 48 hours",> 250 µM
CC[C@@H](CO)NCCN[C@@H](CC)CO [ethambutol],% survival,M. smegmatis [5],< 25%
same,% survival,BCG [6],< 25%
NNC(=O)c1ccncc1 [isoniazid],% survival,M. smegmatis [5],< 25%
same,% survival,BCG [6],< 25%
NC(=O)c1cnccn1 [pyrazinamide],% survival,BCG [6],< 25%
CO[C@H]1/C=C/O[C@@]2(C)Oc3c(C)c(O)c4c(O)c(c(/C=N/N5CCN(C)CC5)c(O)c4c3C2=O)NC(=O)/C(C)=C\C=C\[C@H](C)[C@H](O)[C@@H](C)[C@@H](O)[C@@H](C)[C@H](OC(C)=O)[C@@H]1C [rifampicin],% survival,M. smegmatis [5],< 25%
same,% survival,BCG [6],< 25%
[H]/N=C(/N)N[C@H]1[C@H](O)[C@@H](O)[C@H](O[C@@H]2O[C@@H](C)[C@](O)(C=O)[C@H]2O[C@@H]2O[C@@H](CO)[C@H](O)[C@@H](O)[C@@H]2NC)[C@@H](N/C(N)=N\[H])[C@@H]1O [streptomycin],% survival,M. smegmatis [5],< 25%
same,% survival,BCG [6],< 25%

# From publication PMC6414029, “Utilisation of the Prestwick Chemical Library to identify drugs that inhibit the growth of mycobacteria” (PLoS ONE, 2019)
